Reference: patent US20210045385A1, “PYRIDAZINONE-SUBSTITUTED KETOXIMES AS HERBICIDES” (FMC Corporation, priority 2018, published 2021)

How the values were obtained:
Type in all cases: in vivo
[1] = test system: ducksalad (Heteranhera limosa); experiment: Test B flooded paddy test, visual plant response rating; conditions: 250 g ai/ha, Flood, applied to paddy water, 2-leaf stage, evaluated after 13 to 15 days
Method in brief: (§1)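 Visual scores compare treated plants with controls after 13 to 15 days of greenhouse growth. Treatment was made into paddy water standing 3 cm above the soil, with plants at the 2-leaf stage and flooding maintained throughout.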

[2] = test system: barnyardgrass (Echinochloa crus-galli); experiment: as above; conditions: 250 g ai/ha, Flood, applied to paddy water, 2-leaf stage, evaluated after 13 to 15 days
Method in brief: as §1

[3] = test system: sedge, umbrella (small-flower umbrella sedge, Cyperus difformis); experiment: as above; conditions: 250 g ai/ha, Flood, applied to paddy water, 2-leaf stage, evaluated after 13 to 15 days
Method in brief: as §1

rice (Oryza sativa) = experiment: as above; conditions: 250 g ai/ha, Flood, applied to paddy water, 2-leaf stage, evaluated after 13 to 15 days
Method in brief: as §1

[4] = test system: Italian ryegrass (Lolium multiflorum); experiment: Test A preemergence, visual plant response rating; conditions: for Ryegrass, Italian plant response rating: 125 g ai/ha, preemergence, 0 to 100 scale, 0 no effect, 100 complete control; for Ryegrass, Italian plant response rating (0 to 100 scale): 500 g ai/ha Preemergence, approx. 10 days
Method in brief: (§2)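 Greenhouse evaluation, approx. 10 days post-spray. Soil: loam + sand. Postemergence stage: 1–2 leaves, height 2–10 cm. Vehicle: non-phytotoxic solvent blend with surfactant. Score: visual injury on a 0 (no effect) to 100 (complete control) scale.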

kochia (Kochia scoparia) [5] = experiment: Test A preemergence, visual plant response rating; conditions: for Kochia plant response rating: 125 g ai/ha, preemergence, 0 to 100 scale, 0 no effect, 100 complete control; for Kochia plant response rating (0 to 100 scale): 500 g ai/ha Preemergence, approx. 10 days
Method in brief: as §2

[6] = test system: foxtail, giant (giant foxtail, Setaria faberii); experiment: Test A preemergence, visual plant response rating; conditions: for Foxtail, Giant plant response rating: 125 g ai/ha, preemergence, 0 to 100 scale, 0 no effect, 100 complete control; for Foxtail, Giant plant response rating (0 to 100 scale): 500 g ai/ha Preemergence, approx. 10 days
Method in brief: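 Preemergence: seeds in loam/sand blend given directed soil spray of compound in non-phytotoxic solvent with surfactant. Postemergence: plants 2–10 cm, one- to two-leaf stage, sprayed with same formulation. Visual injury rated vs untreated controls after ~10 days in greenhouse, 0 (no effect) to 100 (complete control).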

[7] = test system: barnyardgrass (Echinochloa crus-galli); experiment: Test A preemergence, visual plant response rating; conditions: for Barnyardgrass plant response rating: 125 g ai/ha, preemergence, 0 to 100 scale, 0 no effect, 100 complete control; for Barnyardgrass plant response rating (0 to 100 scale): 500 g ai/ha Preemergence, approx. 10 days
Method in brief: as §2

[8] = test system: ragweed (common ragweed, Ambrosia elatior); experiment: Test A preemergence, visual plant response rating; conditions: for Ragweed plant response rating: 125 g ai/ha, preemergence, 0 to 100 scale, 0 no effect, 100 complete control; for Ragweed plant response rating (0 to 100 scale): 500 g ai/ha Preemergence, approx. 10 days
Method in brief: as §2

[9] = test system: pigweed (Amaranthus retroflexus); experiment: Test A preemergence, visual plant response rating; conditions: for Pigweed plant response rating: 125 g ai/ha, preemergence, 0 to 100 scale, 0 no effect, 100 complete control; for Pigweed plant response rating (0 to 100 scale): 500 g ai/ha Preemergence, approx. 10 days
Method in brief: as §2

corn (Zea mays) = experiment: Test A postemergence, visual plant response rating; conditions: for Corn plant response rating (0 to 100 scale): 500 g ai/ha, postemergence, 0 is no effect, 100 is complete control; for Corn plant response rating: Postemergence, 125 g ai/ha, 0 to 100 scale (0 no effect, 100 complete control)
Method in brief: as §2

[10] = test system: blackgrass (Alopecurus myosuroides); experiment: Test A postemergence, visual plant response rating; conditions: for Blackgrass plant response rating (0 to 100 scale): 500 g ai/ha, postemergence, 0 is no effect, 100 is complete control; for Blackgrass plant response rating: Postemergence, 125 g ai/ha, 0 to 100 scale (0 no effect, 100 complete control)
Method in brief: as §2

[11] = test system: Italian ryegrass (Lolium multiflorum); experiment: Test A postemergence, visual plant response rating; conditions: for Ryegrass, Italian plant response rating (0 to 100 scale): 500 g ai/ha, postemergence, 0 is no effect, 100 is complete control; for Ryegrass, Italian plant response rating: Postemergence, 125 g ai/ha, 0 to 100 scale (0 no effect, 100 complete control)
Method in brief: as §2

[12] = test system: galium (catchweed bedstraw, Galium aparine); experiment: Test A postemergence, visual plant response rating; conditions: for Galium plant response rating (0 to 100 scale): 500 g ai/ha, postemergence, 0 is no effect, 100 is complete control; for Galium plant response rating: Postemergence, 125 g ai/ha, 0 to 100 scale (0 no effect, 100 complete control)
Method in brief: as §2

kochia (Kochia scoparia) [13] = experiment: Test A postemergence, visual plant response rating; conditions: for Kochia plant response rating (0 to 100 scale): 500 g ai/ha, postemergence, 0 is no effect, 100 is complete control; for Kochia plant response rating: Postemergence, 125 g ai/ha, 0 to 100 scale (0 no effect, 100 complete control)
Method in brief: as §2

[14] = test system: foxtail, giant (giant foxtail, Setaria faberii); experiment: Test A postemergence, visual plant response rating; conditions: for Foxtail, Giant plant response rating (0 to 100 scale): 500 g ai/ha, postemergence, 0 is no effect, 100 is complete control; for Foxtail, Giant plant response rating: Postemergence, 125 g ai/ha, 0 to 100 scale (0 no effect, 100 complete control)
Method in brief: as §2

[15] = test system: barnyardgrass (Echinochloa crus-galli); experiment: Test A postemergence, visual plant response rating; conditions: for Barnyardgrass plant response rating (0 to 100 scale): 500 g ai/ha, postemergence, 0 is no effect, 100 is complete control; for Barnyardgrass plant response rating: Postemergence, 125 g ai/ha, 0 to 100 scale (0 no effect, 100 complete control)
Method in brief: as §2

[16] = test system: ragweed (common ragweed, Ambrosia elatior); experiment: Test A postemergence, visual plant response rating; conditions: for Ragweed plant response rating (0 to 100 scale): 500 g ai/ha, postemergence, 0 is no effect, 100 is complete control; for Ragweed plant response rating: Postemergence, 125 g ai/ha, 0 to 100 scale (0 no effect, 100 complete control)
Method in brief: as §2

[17] = test system: pigweed (Amaranthus retroflexus); experiment: Test A postemergence, visual plant response rating; conditions: for Pigweed plant response rating (0 to 100 scale): 500 g ai/ha, postemergence, 0 is no effect, 100 is complete control; for Pigweed plant response rating: Postemergence, 125 g ai/ha, 0 to 100 scale (0 no effect, 100 complete control)
Method in brief: as §2

[18] = test system: wheat (Triticum aestivum); experiment: Test A postemergence, visual plant response rating; conditions: for Wheat plant response rating (0 to 100 scale): 500 g ai/ha, postemergence, 0 is no effect, 100 is complete control; for Wheat plant response rating: Postemergence, 125 g ai/ha, 0 to 100 scale (0 no effect, 100 complete control)
Method in brief: as §2

| SMILES | Plant response rating, Ducksalad (0 to 100 scale, 0 is no effect, 100 is complete control) [1] | Plant response rating, Barnyardgrass (0 to 100 scale, 0 is no effect, 100 is complete control) [2] | Plant response rating, Sedge, Umbrella (0 to 100 scale, 0 is no effect, 100 is complete control) [3] | Plant response rating, Rice (0 to 100 scale, 0 is no effect, 100 is complete control) (rice (Oryza sativa)) | Ryegrass, Italian plant response rating [4] | Ryegrass, Italian plant response rating (0 to 100 scale) [4] | Kochia plant response rating (kochia (Kochia scoparia) [5]) | Kochia plant response rating (0 to 100 scale) (kochia (Kochia scoparia) [5]) | Foxtail, Giant plant response rating [6] | Foxtail, Giant plant response rating (0 to 100 scale) [6] | Barnyardgrass plant response rating [7] | Barnyardgrass plant response rating (0 to 100 scale) [7] | Ragweed plant response rating [8] | Ragweed plant response rating (0 to 100 scale) [8] | Pigweed plant response rating [9] | Pigweed plant response rating (0 to 100 scale) [9] | Corn plant response rating (0 to 100 scale) (corn (Zea mays)) | Corn plant response rating (corn (Zea mays)) | Blackgrass plant response rating (0 to 100 scale) [10] | Blackgrass plant response rating [10] | further results |
| --- | --- | --- | --- | --- | --- | --- | --- | --- | --- | --- | --- | --- | --- | --- | --- | --- | --- | --- | --- | --- | --- |
| CON=C(c1c(O)c(C)nn(C)c1=O)c1cccc2ccoc12 [Compound 61] | 0 | 0 | 0 | 0 | 30 | 80 | 0 | 0 | 0 | 10 | 0 | 0 | 0 | 70 | 0 | 0 | 0 | 0 | 20 | 10 | Ryegrass, Italian plant response rating (0 to 100 scale) [11]: 70; Ryegrass, Italian plant response rating [11]: 10; Galium plant response rating (0 to 100 scale) [12]: 80; Galium plant response rating [12]: 60; Kochia plant response rating (0 to 100 scale) (kochia (Kochia scoparia) [13]): 50; Kochia plant response rating (kochia (Kochia scoparia) [13]): 30; Foxtail, Giant plant response rating (0 to 100 scale) [14]: 20; Foxtail, Giant plant response rating [14]: 0; Barnyardgrass plant response rating (0 to 100 scale) [15]: 20; Barnyardgrass plant response rating [15]: 0; Ragweed plant response rating (0 to 100 scale) [16]: 30; Ragweed plant response rating [16]: 10; Pigweed plant response rating (0 to 100 scale) [17]: 80; Pigweed plant response rating [17]: 50; Wheat plant response rating (0 to 100 scale) [18]: 40; Wheat plant response rating [18]: 30 |
| CON=C(c1cccc(C(F)(F)F)c1)c1c(O)c(C)nn(C)c1=O [Compound 56] | 30 | 0 | 15 | 20 | 0 | 40 | 0 | 60 | 0 | 40 | 0 | 50 | 70 | 50 | 30 | 90 | 0 | 0 | 40 | 30 | Ryegrass, Italian plant response rating (0 to 100 scale) [11]: 50; Ryegrass, Italian plant response rating [11]: 20; Galium plant response rating (0 to 100 scale) [12]: 80; Galium plant response rating [12]: 70; Kochia plant response rating (0 to 100 scale) (kochia (Kochia scoparia) [13]): 50; Kochia plant response rating (kochia (Kochia scoparia) [13]): 20; Foxtail, Giant plant response rating (0 to 100 scale) [14]: 0; Foxtail, Giant plant response rating [14]: 0; Barnyardgrass plant response rating (0 to 100 scale) [15]: 10; Barnyardgrass plant response rating [15]: 0; Ragweed plant response rating (0 to 100 scale) [16]: 50; Ragweed plant response rating [16]: 10; Pigweed plant response rating (0 to 100 scale) [17]: 70; Pigweed plant response rating [17]: 50; Wheat plant response rating (0 to 100 scale) [18]: 0; Wheat plant response rating [18]: 0 |
| CON=C(c1c(O)c(C)nn(C)c1=O)c1cccc2cc(F)ccc12 [Compound 119] | 0 | 0 | 0 | 0 | 30 | 100 | 30 | 80 | 80 | 100 | 50 | 80 | 90 | 90 | 80 | 100 | 40 | 10 | 90 | 80 | Ryegrass, Italian plant response rating (0 to 100 scale) [11]: 90; Ryegrass, Italian plant response rating [11]: 80; Galium plant response rating (0 to 100 scale) [12]: 100; Galium plant response rating [12]: 80; Kochia plant response rating (0 to 100 scale) (kochia (Kochia scoparia) [13]): 70; Kochia plant response rating (kochia (Kochia scoparia) [13]): 70; Foxtail, Giant plant response rating (0 to 100 scale) [14]: 80; Foxtail, Giant plant response rating [14]: 70; Barnyardgrass plant response rating (0 to 100 scale) [15]: 80; Barnyardgrass plant response rating [15]: 70; Ragweed plant response rating (0 to 100 scale) [16]: 90; Ragweed plant response rating [16]: 90; Pigweed plant response rating (0 to 100 scale) [17]: 90; Pigweed plant response rating [17]: 80; Wheat plant response rating (0 to 100 scale) [18]: 0; Wheat plant response rating [18]: 0 |
